How the values were obtained:
Botrytis cinerea spores = test: Botrytis cinerea spore (conidia) germination assay; assay type: cell-based; details: pure PEA; 14 hours at 4° C.; absorbance 570 nm
Method: In this point, the PEA volatile compound effect was tested in B.c. spores germination. The assay consisted in inoculate B.c. spores in 100 μL of malt yeast nutritive media (ML, 0.3% malt and 0.2% yeast extract), using 40 μL of a B.c. spore suspension with a 10^5 spores/mL concentration. Resuspended spores in ML media were transferred to sterile multiwall plates (140 μL/well) and then these plates were put in a hermetic and sealed container during a definite time, in dark and at 4° C. The necessary time to detect maximum germination was experimentally determined by conducting a germination kinetic assay for each B.c. strain. Measurements were done every 2 hours up until 16 hours, thus finding the maximum germination between 14 and 16 hours. The methodology used in the laboratory consisted in a spore fixation/staining process in each well, using trichloroacetic acid and sulphododamyne B, that allowed for a direct correlation between the obtained absorbance values (at 570 nm) with germinated spore number. The first experimental group was assayed without volatile compounds and was used as control (n=4), the experiment was done in sealed hermetic containers at 4° C. for 14 hours (100% of spore germination).

Botrytis cinerea = Botrytis cinerea radial growth bioassay with volatile compounds, no direct contact; assay type: cell-based; details: for effect on B.c. radial growth: pure compound 6, 30 and 61 μL, four strains, PDA
Method: PHBV and PEA microparticle synthesis was done by double emulsion/evaporation. Experimentally, 15 mg of PEA were added to 50 mg/mL PHBV solution in dichloromethane, and then 30 μL of distilled water. This mixture was emulsified with a homogenizer at 35,000 rpm during 30 seconds. To this emulsion, a 5% w/v polyvinyl alcohol was added, and it was homogenized at 35.000 rpm for 30 seconds. The result of this double emulsion was put in an orbital shaker for 12 hours at 100 rpm. Once the solvent evaporated, the microparticles were isolated by centrifugation, washed with distilled water and lyophilized. Subsequently, the assays described below were done.
The experimental model consisted in testing in vitro both the pure and microencapsulated phenylethylalcohol (PEA) volatile compound effect in B.c. The reporting parameter was radial growth and the volatile compound doses were determined with in vitro assays (bioassays). To do this, four different Botrytis strains were exposed to the pure compound, but without direct contact between compound and microorganism.
Bioassays were done in hermetic containers during 6 days at 4° C. (simulating storage conditions). It was previously determined that, for all the strains in study, they were able to cover almost completely the maximum container area (33 mm diameter), in 6 days. The hermetic container was assembled in such a way that there is no physical contact between the evaluated compounds and B.c, in any circumstances.
Radial growth was quantified in three independent experimental groups, which were assayed using potato dextrose agar (PDA) as nutritive support and, after the established culture conditions, initial inoculum growth diameter was determined as 7 mm (disk with actively growing B.c. using PDA as support). The first group was assayed in the container, in absence of a volatile compound and was used as control group (n=4). The second group was assayed challenging the B.c. inoculum with different PEA quantities (6, 30 y 61 μL), separately, with the same culture conditions (n=4). Finally, the third group was assayed like the second group, but with PHBV microencapsulated PEA in defined concentrations (n=2).

| SMILES | effect on Botrytis conidia germination (Botrytis cinerea spores) | effect on B.c. radial growth, statistics (ANOVA, TUKEY, p<0.05) (Botrytis cinerea; 30 and 61 μL doses, all strains, 6 days at 4° C.) | B.c. growth at higher doses (Botrytis cinerea; doses higher than 61 μL, 6 days) | effect on B.c. radial growth (Botrytis cinerea; 6 days at 4° C.) |
| --- | --- | --- | --- | --- |
| OCCc1ccccc1 [PEA, phenylethylalcohol] | does not inhibit Botrytis conidia germination in the same way that it inhibited micellium growth | statistically significant effect in all of the strains | not a measurable growth after 6 days | has an inhibiting effect in all the assayed B.c. strains |
| CCCCCC1CCCC(=O)O1 (stereo not drawn) [d-Lac, delta-decalactone] |  |  |  | does not present a statistically significative effect |
